In publication PMC7848139, “Novel Hybrid CHC from β-carboline and N-Hydroxyacrylamide Overcomes Drug-Resistant Hepatocellular Carcinoma by Promoting Apoptosis, DNA Damage, and Cell Cycle Arrest” (Frontiers in Pharmacology, 2021):

Columns and labels:
Bel7402/5-FU cells = assay: Cell apoptosis analysis by flow cytometry; assay type: cell-based, human; details: 72 h
Method: Briefly, Bel7402/5-FU cells were cultured in DMEM at 37°C with 5% CO2 for 12 h. […] Then Bel7402/5-FU cells were collected and using APC-Annexin V and 7-AAD to stain these cells under the condition of 37°C for 15 min. Flow cytometry analysis (Calibur, BD, United States) decide the percentage of apoptotic cells according to APC signal (FL4) (excitation wavelength at 633 nm; emission wavelength at 660 nm) and 7-AAD staining signal (FL3) (excitation wavelength at 488 nm; emission wavelength at 647 nm). WinList 3D (7.1) analyzed the data and Excel 2016 plotted the histogram.
FIGURE 5 CHC causes apoptosis of Bel7402/5-FU cells. […] The data (mean ± SD, percentage of apoptotic cells) represent the average of three separate experiments. *p < 0.01 vs. control.

Bel7402 = assay: MTT antiproliferative assay, Bel7402; assay type: cell-based; details: Homo sapiens, Bel-7402, 72 h, mean ± SD of three experiments, read-out: In vitro antiproliferative activity (IC50) Bel7402
Method: (§1) Briefly, appropriate cells (1 × 10^4 cells/mL) were placed into 96-well plates in 100 μL of DMEM medium overnight. Then adding 100 μL of evaluated compounds into individual well for 72 h while 0.1% DMSO aqueous solution was treated as the negative control. After incubation with 30 μl MTT (5 mg/mL) for 4 h in all well, and ELISA plate reader measured absorbance of each well at 570 nm. Then calculating cytotoxicity effect of evaluated compounds through the formula: Cell inhibitory percentage (%) = (1−OD of treatment group/OD of control) × 100%.

SMMC-7721 = assay: MTT antiproliferative assay, SMMC-7721; assay type: cell-based; details: Homo sapiens, 72 h, mean ± SD of three experiments, read-out: In vitro antiproliferative activity (IC50) SMMC-7721
Method: as §1

LO2 cells = assay: MTT assay on normal liver LO2 cells; assay type: cell-based, human; details: increasing dosages, 72 h
Method: Human cancer cell lines (SMMC-7721, Bel7402, Huh7, HCT116), drug-resistant cell lines (Bel7402/5-FU), and human normal hepatocyte cells (LO2) were purchased from Institute of Cell Biology (Shanghai, China).
as §1, with “100%. GraphPadPrism (4.03) calculated data to afford Corresponding IC50 values.” for “100%.”
FIGURE 3 Inhibition potency of CHC against the proliferation on Bel7402, Bel7402/5-FU, and LO2 cells. Cells were treated with CHC at the indicated concentrations for 72 h. MTT assays were performed to evaluate cell proliferation. The inhibition (%) rate (mean ± SD) were from three separate experiments.

Bel7402/5-FU xenografts = assay: In vivo tumor growth inhibition, Bel7402/5-FU xenograft; set-up: species or system BALB/c nude mice; details: intraperitoneal daily, 21 days
Method: All animal experimental protocols were approved by the Animal Research and Care Committee of Nantong University. Female BALB/c nude mice at 5∼6 week-old were subcutaneously implanted with 1×10^6 Bel7402/5-FU cells. […] The body mass and tumor size of nude mice were surveyed every three days during the 21 days study. Tumor size (mm^3) of nude mice was determined using the formula: tumor size = ½ (Length×Width^2). Finally, these tumor-bearing mice were sacrificed, and their tumors were removed and weighed at the end of the 21 days.
Data (means ± SD) were from tumor volumes or weight of each group of mice (n = 6 per group). *p < 0.01 vs. control group.

[1] = test system: SUMM-7721, Bel7402, Huh7, HCT116 and Bel7402/5FU cells; assay: MTT antiproliferative assay, range over the five cancer cell lines; assay type: cell-based; details: Homo sapiens; range over drug-sensitive SUMM-7721, Bel7402, Huh7, HCT116 and drug-resistant Bel7402/5FU cells
Method: as §1

recombinant human HDAC8 = biological target: T1, recombinant human HDAC8 (Homo sapiens, UniProt Q9BY41); assay: HDAC fluorimetric assay, HDAC8; assay type: biochemical; details: mean ± SD of three experiments
T1 construct: purchased Enzo Life Sciences Inc
T1 sequence (Q9BY41 1-377): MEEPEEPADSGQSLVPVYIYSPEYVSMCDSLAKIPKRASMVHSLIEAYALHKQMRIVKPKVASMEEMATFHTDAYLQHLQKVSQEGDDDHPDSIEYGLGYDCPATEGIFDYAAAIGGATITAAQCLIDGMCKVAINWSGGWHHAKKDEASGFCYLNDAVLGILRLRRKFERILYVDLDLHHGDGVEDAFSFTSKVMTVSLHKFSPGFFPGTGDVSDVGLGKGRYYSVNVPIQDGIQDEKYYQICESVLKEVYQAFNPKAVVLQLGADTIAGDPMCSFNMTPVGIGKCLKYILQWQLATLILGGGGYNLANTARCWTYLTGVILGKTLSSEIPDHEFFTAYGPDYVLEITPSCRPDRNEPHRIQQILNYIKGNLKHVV
Method: The assay was conducted according to the HDAC1/3/6/8 assay kit (Enzo Life Sciences Inc.). Each different concentrations of evaluated compounds were, respectively, incubated with each HDAC1/3/6/8 at coupling of corresponding HDAC substrate (Boc-Lys (Ac)-AMC) at 37°C for 60 min. Then stopping the reaction under adding lysine developer.

CT-DNA = assay: UV-visible spectroscopy titrations with CT DNA; assay type: binding, calf; details: 20 μM compound, equal increments of CT-DNA, 25°C
Method: The ultraviolet spectrophotometer (UV2500, Shimadzu, Tokyo, Japan) recorded UV–visible spectroscopy under titrations at 25°C. Tris buffer (5 mM) was used to prepare Stock solutions of CT DNA (20 μM, calf thymus DNA) comprising ideal structure of double stranded DNA. Dissolving synthesized derivative in 1:1000 DMSO/Milli Q water to prepare stock solutions of them (20 μM). UV–visible absorption titrations were carried out with addition of 100 μl CT DNA solution to 4 ml solution of tested compound in quartz cuvette each time interval. Until the absorption band of complex containing synthesized derivative and CT DNA kept at a stable wavelength after adding CT DNA successfully for five times, titrations were finished. Finally, spectrophotometer noted the absorption spectra (250–500 nm).
FIGURE 7 UV-visible absorption spectra of CHC after adding equal amounts of CT DNA. Arrows indicate changes in absorbance with increasing concentrations of DNA [CHC] = 20 μM.

IC50 (Bel7402): 1840 ± 230 nM | IC50 (SMMC-7721): 3270 ± 360 nM | IC50 [1]: 1840 to 3270 nM | IC50 (recombinant human HDAC8): > 1000 nM
Structure (SMILES): CN(C)c1ccc(-c2nc(C(=O)NCc3ccc(/C=C/C(=O)NO)cc3)cc3c2[nH]c2ccccc23)cc1 [CHC, (E)-N-(4-(3-(hydroxyamino)-3-oxoprop-1-en-1-yl)benzyl)-1-(4-dimethylaminophenyl)-9H-pyrido [3,4-b]indole-3-carboxamide]
rate of Annexin V+ Bel7402/5-FU cellular apoptosis (Bel7402/5-FU cells; 2.0 μM): 42.3% | rate of Annexin V+ Bel7402/5-FU cellular apoptosis (Bel7402/5-FU cells; 5.0 μM): 67.2% | cytotoxicity on normal liver LO2 cells growth (LO2 cells): minimal cytotoxicity effects | decrease of tumor mass compared to saline group (Bel7402/5-FU xenografts; 70 μmol/kg): 65 % (w/w) | tumor mass at end of treatment (Bel7402/5-FU xenografts; 70 μmol/kg, n = 6, saline group 1.47 ± 0.21 g): 0.51 ± 0.08 g | body mass change vs vehicle group (Bel7402/5-FU xenografts): no significant statistical difference | xenograft hepatic tumor volume (Bel7402/5-FU xenografts): markedly diminished xenograft hepatic tumor volume | change of UV-visible absorption upon adding CT-DNA (CT-DNA): absorption at all wavelengths gradually decreased
